The test relates to growth hormone. The test is described as follows: Arginine-stimulated growth hormone secretion in Nembutal-anaesthetised rats. The class given is in vivo. To be noted: albino male rats, 1 mg/kg subcutaneous. The protocol: The activity of the product of the preceding preparatory example, (D-Nle^4)Somatostatin, was determined by the following procedure:
Albino male rats were administered Nembutal intraperitoneally at a dose of 50 milligrams per kilogram. Fifteen minutes later a subcutaneous injection of the test compound or physiological saline was administered. Ten minutes later 0.5 milliliters of arginine (300 millligrams per milliliter, pH 7.2) is injected into the heart. Five minutes after receipt of the arginine the rats are decapitated and blood is collected into trasylol-EDTA.

Bridge positions count the residues as written; N and C are the ends. Square brackets hold non-standard residues; d marks the D form. Peptide text beside a SMILES is read from it. dNle = CCCC[C@@H](N)C(=O)O

With `CCCC[C@H]1NC(=O)[C@@H](NC(=O)CNC(=O)[C@H](C)N)CSSC[C@@H](C(=O)O)NC(=O)[C@H](CO)NC(=O)[C@H]([C@@H](C)O)NC(=O)[C@H](Cc2ccccc2)NC(=O)[C@H]([C@@H](C)O)NC(=O)[C@H](CCCCN)NC(=O)[C@H](Cc2c[nH]c3ccccc23)NC(=O)[C@H](Cc2ccccc2)NC(=O)[C@H](Cc2ccccc2)NC(=O)[C@H](CC(N)=O)NC1=O` [(D-Nle^4)Somatostatin, L-Alanyl-glycyl-L-cysteinyl-D-norleucyl-L-asparaginyl-L-phenylalanyl-L-phenylalanyl-L-tryptophyl-L-lysyl-L-threonyl-L-phenylalanyl-L-threonyl-L-seryl- L-cysteine cyclic (1.revreaction.14) disulfide] (H-AGC[dNle]NFFWKTFTSC-OH; disulfide 3-14), the “reducing secretion of growth hormone (in words)” value is given as “effective agent for reducing secretion of growth hormone”. For the same compound, the “growth hormone in blood” value (arginine injected 10 min later, blood 5 min after arginine, control 208±52 ng/ml, p<0.05) turned out to be 83 ± 23 ng/mL.

For the origin of these results see US4081433A, “D-Nle^4 -somatostatin and analogues thereof” (American Home Products Corporation, priority 1977, dated 1978).
